What is called IC50 is the concentration needed to halve the response being measured.

Human complement C1s enzyme, sequence (P09871 438-688 limits assumed): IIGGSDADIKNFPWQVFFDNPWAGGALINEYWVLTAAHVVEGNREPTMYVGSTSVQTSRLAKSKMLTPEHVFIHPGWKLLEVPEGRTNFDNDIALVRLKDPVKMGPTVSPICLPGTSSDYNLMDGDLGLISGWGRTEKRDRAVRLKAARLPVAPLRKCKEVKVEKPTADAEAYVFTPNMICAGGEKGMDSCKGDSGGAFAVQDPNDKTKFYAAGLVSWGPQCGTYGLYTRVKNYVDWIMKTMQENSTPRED
Human complement C1s enzyme, sequence (P09871 16-437 partner limits assumed): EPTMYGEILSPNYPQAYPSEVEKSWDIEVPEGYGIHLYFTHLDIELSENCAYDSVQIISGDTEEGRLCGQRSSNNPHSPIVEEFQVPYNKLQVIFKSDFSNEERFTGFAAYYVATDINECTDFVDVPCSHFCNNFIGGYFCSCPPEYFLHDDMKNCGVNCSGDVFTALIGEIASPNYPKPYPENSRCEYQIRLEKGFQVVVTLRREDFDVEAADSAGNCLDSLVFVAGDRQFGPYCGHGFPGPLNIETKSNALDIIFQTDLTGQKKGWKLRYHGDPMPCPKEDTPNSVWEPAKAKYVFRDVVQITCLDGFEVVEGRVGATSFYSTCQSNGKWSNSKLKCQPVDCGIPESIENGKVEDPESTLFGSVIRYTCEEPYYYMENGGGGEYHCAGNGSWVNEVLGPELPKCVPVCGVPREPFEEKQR

The experiment addresses Human complement C1s enzyme (Homo sapiens (Human), UniProt P09871). The experiment in a line: Human C1s enzyme assay. Format: biochemical. Conditions: Human C1s enzyme assay of Example 3; read-out: IC50 (Stars). The essentials:
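IC50 derived by nonlinear regression of rate versus concentration, with rate taken from A405 kinetics (30 s intervals, 30 min) after adding 100 μM each Z-L-Lys-SBzl and DTNB. C1s from human serum, 1.16 nM, exposed to compound for 5 min at RT beforehand; buffer 50 mM Tris, 1 M NaCl, pH 7.5.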
On to `C[C@@H](NC(=O)[C@@H]1CC2(CN1C(=O)CNC(=O)c1ccc(-c3ccc(F)cc3)c(F)c1)OCCO2)c1cc(C(=N)N)cs1` [Compound 175, (S)—N—((R)-1-(4-carbamimidoylthiophen-2-yl)ethyl)-7-((2,4′-difluoro-[1,1′-biphenyl]-4-carbonyl)glycyl)-1,4-dioxa-7-azaspiro[4.4]nonane-8-carboxamide], for which the IC50 is below 100 nM.
The result for `C[C@@H](NC(=O)[C@@H]1CC2(CN1C(=O)CNC(=O)c1ccc(-c3ccc(F)cc3Cl)cc1)OCCO2)c1cc(C(=N)N)cs1` [Compound 176, (S)—N—((R)-1-(4-carbamimidoylthiophen-2-yl)ethyl)-7-((2′-chloro-4′-fluoro-[1,1′-biphenyl]-4-carbonyl)glycyl)-1,4-dioxa-7-azaspiro[4.4]nonane-8-carboxamide] reads below 100 nM.
To `Cc1cccc2c1-c1cc(C(=O)NCC(=O)N3CC4(C[C@H]3C(=O)N[C@H](C)c3cc(C(=N)N)cs3)OCCO4)ccc1C2(F)F` [Compound 177, (S)—N—((R)-1-(4-carbamimidoylthiophen-2-yl)ethyl)-7-((9,9-difluoro-5-methyl-9H-fluorene-3-carbonyl)glycyl)-1,4-dioxa-7-azaspiro[4.4]nonane-8-carboxamide] belongs below 100 nM.
To `C[C@@H](NC(=O)[C@@H]1C[C@@H](S(C)(=O)=O)CN1C(=O)CNC(=O)c1ccc2c(c1)-c1ccccc1C2(C)C)c1cc(C(=N)N)cs1` [Compound 178, (2S,4R)—N—((R)-1-(4-carbamimidoylthiophen-2-yl)ethyl)-1-((9,9-dimethyl-9H-fluorene-3-carbonyl)glycyl)-4-(methylsulfonyl)pyrrolidine-2-carboxamide] belongs below 100 nM; to `Cc1cc(C(=O)NCC(=O)N2CC3(C[C@H]2C(=O)N[C@H](C)c2cc(C(=N)N)cs2)OCCO3)cc2c1C(F)(F)c1ccccc1-2` [Compound 179, (S)—N—((R)-1-(4-carbamimidoylthiophen-2-yl)ethyl)-7-((9,9-difluoro-1-methyl-9H-fluorene-3-carbonyl)glycyl)-1,4-dioxa-7-azaspiro[4.4]nonane-8-carboxamide], below 100 nM; to `Cc1ccc2c(c1)-c1cc(C(=O)NCC(=O)N3CC4(C[C@H]3C(=O)N[C@H](C)c3cc(C(=N)N)cs3)OCCO4)ccc1C2(F)F` [Compound 180, (S)—N—((R)-1-(4-carbamimidoylthiophen-2-yl)ethyl)-7-((9,9-difluoro-6-methyl-9H-fluorene-3-carbonyl)glycyl)-1,4-dioxa-7-azaspiro[4.4]nonane-8-carboxamide], below 100 nM.
Consider `C[C@@H](NC(=O)[C@@H]1CC2(CN1C(=O)CNC(=O)c1cc(F)c(-c3ccc(F)cc3)cn1)OCCO2)c1cc(C(=N)N)cs1` [Compound 181, (S)—N—((R)-1-(4-carbamimidoylthiophen-2-yl)ethyl)-7-((4-fluoro-5-(4-fluorophenyl)picolinoyl)glycyl)-1,4-dioxa-7-azaspiro[4.4]nonane-8-carboxamide], for which the IC50 is below 100 nM.
The result for `Cc1cccc2c1C(F)(F)c1ccc(C(=O)NCC(=O)N3CC4(C[C@H]3C(=O)N[C@H](C)c3cc(C(=N)N)cs3)OCCO4)cc1-2` [Compound 182, (S)—N—((R)-1-(4-carbamimidoylthiophen-2-yl)ethyl)-7-((9,9-difluoro-8-methyl-9H-fluorene-3-carbonyl)glycyl)-1,4-dioxa-7-azaspiro[4.4]nonane-8-carboxamide] reads below 100 nM; that for `CS(=O)(=O)c1ccc(-c2ccc(C(=O)NCC(=O)N3CC4(C[C@H]3C(=O)NCc3cc(C(=N)N)cs3)OCCO4)cc2)cc1` [Compound 183, (S)—N-((4-carbamimidoylthiophen-2-yl)methyl)-7-((4′-(methylsulfonyl)-[1,1′-biphenyl]-4-carbonyl)glycyl)-1,4-dioxa-7-azaspiro[4.4]nonane-8-carboxamide], below 100 nM; that for `Nc1csc(-c2csc(CNC(=O)[C@@H]3CC4(CN3C(=O)CNC(=O)c3ccc(Oc5ccc(F)cc5)cc3)OCCO4)c2)n1` [Compound 184, (S)—N-((4-(4-aminothiazol-2-yl)thiophen-2-yl)methyl)-7-((4-(4-fluorophenoxy)benzoyl)glycyl)-1,4-dioxa-7-azaspiro[4.4]nonane-8-carboxamide], above 1000 nM.
`Nc1cnc(-c2csc(CNC(=O)[C@@H]3CC4(CN3C(=O)CNC(=O)c3ccc(Oc5ccc(F)cc5)cc3)OCCO4)c2)s1` [Compound 185, (S)—N-((4-(5-aminothiazol-2-yl)thiophen-2-yl)methyl)-7-((4-(4-fluorophenoxy)benzoyl)glycyl)-1,4-dioxa-7-azaspiro[4.4]nonane-8-carboxamide]: the IC50 was below 100 nM.
The result for `Nc1nc(-c2csc(CNC(=O)[C@@H]3CC4(CN3C(=O)CNC(=O)c3ccc(Oc5ccc(F)cc5)cc3)OCCO4)c2)cs1` [Compound 186, (S)—N-((4-(2-aminothiazol-4-yl)thiophen-2-yl)methyl)-7-((4-(4-fluorophenoxy)benzoyl)glycyl)-1,4-dioxa-7-azaspiro[4.4]nonane-8-carboxamide] reads above 1000 nM.
The result for `Nc1ncc(-c2csc(CNC(=O)[C@@H]3CC4(CN3C(=O)CNC(=O)c3ccc(Oc5ccc(F)cc5)cc3)OCCO4)c2)s1` [Compound 187, (S)—N-((4-(2-aminothiazol-5-yl)thiophen-2-yl)methyl)-7-((4-(4-fluorophenoxy)benzoyl)glycyl)-1,4-dioxa-7-azaspiro[4.4]nonane-8-carboxamide] reads above 1000 nM; that for `N=C(N)c1csc(CNC(=O)[C@@H]2CC3(CN2C(=O)CNC(=O)c2ccc(-c4cc(F)ccc4F)cc2)OCCO3)c1` [Compound 188, (S)—N-((4-carbamimidoylthiophen-2-yl)methyl)-7-((2′,5′-difluoro-[1,1′-biphenyl]-4-carbonyl)glycyl)-1,4-dioxa-7-azaspiro[4.4]nonane-8-carboxamide], below 100 nM; that for `N=C(N)c1csc(CNC(=O)[C@@H]2CC3(CN2C(=O)CNC(=O)c2ccc(-c4cc(F)cc(F)c4)cc2)OCCO3)c1` [Compound 189, (S)—N-((4-carbamimidoylthiophen-2-yl)methyl)-7-((3′,5′-difluoro-[1,1′-biphenyl]-4-carbonyl)glycyl)-1,4-dioxa-7-azaspiro[4.4]nonane-8-carboxamide], below 100 nM.
To `Cc1ccc2c(c1)C(F)(F)c1ccc(C(=O)NCC(=O)N3CC4(C[C@H]3C(=O)N[C@H](C)c3cc(C(=N)N)cs3)OCCO4)cc1-2` [Compound 190, (S)—N—((R)-1-(4-carbamimidoylthiophen-2-yl)ethyl)-7-((9,9-difluoro-7-methyl-9H-fluorene-3-carbonyl)glycyl)-1,4-dioxa-7-azaspiro[4.4]nonane-8-carboxamide] belongs below 100 nM; to `COc1ccc2c(c1)C(F)(F)c1ccc(C(=O)NCC(=O)N3CC4(C[C@H]3C(=O)N[C@H](C)c3cc(C(=N)N)cs3)OCCO4)cc1-2` [Compound 191, (S)—N—((R)-1-(4-carbamimidoylthiophen-2-yl)ethyl)-7-((9,9-difluoro-7-methoxy-9H-fluorene-3-carbonyl)glycyl)-1,4-dioxa-7-azaspiro[4.4]nonane-8-carboxamide], below 100 nM; to `C[C@@H](NC(=O)[C@@H]1CC2(CN1C(=O)CNC(=O)c1ccc3c(c1)-c1ccc(Cl)cc1C3(F)F)OCCO2)c1cc(C(=N)N)cs1` [Compound 192, (8S)—N-[(1R)-1-(4-carbamimidoylthiophen-2-yl)ethyl]-7-{2-[(7-chloro-9,9-difluorofluoren-3-yl)formamido]acetyl}-1,4-dioxa-7-azaspiro[4.4]nonane-8-carboxamide], below 100 nM.
Turning to `C[C@@H](NC(=O)[C@@H]1CC2(CN1C(=O)CNC(=O)c1ccc3c(c1)-c1ccc(F)cc1C3(F)F)OCCO2)c1cc(C(=N)N)cs1` [Compound 193, (8S)—N-[(1R)-1-(4-carbamimidoylthiophen-2-yl)ethyl]-7-{2-[(7,9,9-trifluorofluoren-3-yl)formamido]acetyl}-1,4-dioxa-7-azaspiro[4.4]nonane-8-carboxamide], the IC50 is below 100 nM.
To `C[C@@H](NC(=O)[C@@H]1C[C@](F)(COCCCCCCCCCC(=O)O)CN1C(=O)CNC(=O)c1ccc2c(c1)-c1ccccc1C2(F)F)c1cc(C(=N)N)cs1` [Compound 194, 10-(((3R,5S)-5-(((R)-1-(4-carbamimidoylthiophen-2-yl)ethyl)carbamoyl)-1-((9,9-difluoro-9H-fluorene-3-carbonyl)glycyl)-3-fluoropyrrolidin-3-yl)methoxy)decanoic acid] belongs below 100 nM.
To `N=C(N)c1csc(CNC(=O)[C@@H]2CC3(CN2C(=O)CNC(=O)c2ccc(-c4cnc5[nH]ccc5c4)cc2)OCCO3)c1` [Compound 195, (S)-7-((4-(1H-pyrrolo[2,3-b]pyridin-5-yl)benzoyl)glycyl)-N-((4-carbamimidoylthiophen-2-yl)methyl)-1,4-dioxa-7-azaspiro[4.4]nonane-8-carboxamide] belongs below 100 nM.
The result for `N=C(N)c1csc(CNC(=O)[C@@H]2CC3(CN2C(=O)CNC(=O)c2ccc(-c4c(F)cccc4F)cc2)OCCO3)c1` [Compound 196, (S)—N-((4-carbamimidoylthiophen-2-yl)methyl)-7-((2′,6′-difluoro-[1,1′-biphenyl]-4-carbonyl)glycyl)-1,4-dioxa-7-azaspiro[4.4]nonane-8-carboxamide] reads below 100 nM.
`Cc1cccc(C)c1-c1ccc(C(=O)NCC(=O)N2CC3(C[C@H]2C(=O)NCc2cc(C(=N)N)cs2)OCCO3)cc1` [Compound 197, (S)—N-((4-carbamimidoylthiophen-2-yl)methyl)-7-((2′,6′-dimethyl-[1,1′-biphenyl]-4-carbonyl)glycyl)-1,4-dioxa-7-azaspiro[4.4]nonane-8-carboxamide]: the IC50 is below 100 nM.

The values are drawn from patent US20250346585A1 (Alexion Pharmaceuticals, Inc., priority 2022, published 2025).
